# Patent US12064455B2, “Free fatty acids and methods of manufacture and use for treating coronavirus and other viral respiratory infections” (priority 2020, dated 2024)
# Read-outs that look alike come from different tables or passages of the source.
# Legend:
# [1] = tested on: MDCK
# [2] = tested on: MA-104; assay: Toxicity controls, Example 8; settings: Ethanol 70%, highest dilution with full (80-100%) cytotoxicity
# [3] = tested on: hCoV-229E; assay: Neutralization/virucidal assay, Example 8
# [4] = tested on: A549; assay: Toxicity controls, Example 8; assay type: cell-based; settings: Ethanol 70%; Ad-5 test; highest dilution with full (80-100%) cytotoxicity
# [5] = tested on: RSV; assay type: cell-based, respiratory syncytial virus
# [6] = tested on: Influenza(H1N1)pdm09 virus; assay: Neutralization/virucidal assay, Example 8; assay type: cell-based, influenza A(H1N1)pdm09; settings: Ethanol 70%
# [7] = tested on: SARS-CoV-2; assay type: cell-based; settings: Ethanol 35%
# [8] = tested on: HeLa; assay: Toxicity controls, Example 8; settings: Ethanol 70%; HRV-14 test; highest dilution with full (80-100%) cytotoxicity
# [9] = tested on: Ad-5; assay type: cell-based, Adenovirus Type 5
# [10] = tested on: Huh7
# [11] = tested on: PIV-3; assay type: cell-based, parainfluenza virus type 3
# [12] = tested on: HRV-14; assay type: cell-based, human rhinovirus
compound,measurement,setting,value
CCO [Ethanol],Toxicity,[1],None
same,Toxicity,[2]; PIV-3 test,None
same,Toxicity,[2]; RSV test,None
same,Virus Titer,[3],<0.7 log10 CCID50 of virus per 0.1 mL
same,LRV,"[3]; Ethanol 70%, contact time 10-min, vs virus control",>2.0
same,Toxicity,[4],None
same,LRV,[5],2.0
same,Virus Titer,[5],1.0 log10 CCID50 of virus per 0.1 mL
same,Virus Titer,[6]; contact time 10-min at 22 ± 2° C.,3.0 log10 CCID50 of virus per 0.1 mL
same,LRV,"[6]; contact time 10-min, vs virus control",4.0
same,LRV,[7]; assay replicate 1,>3.6−
same,Virus Titer,[7]; assay replicate 1,<0.7 Log10CCID50 of virus per 0.1 ml
same,LRV,[7]; assay replicate 2,>3.3
same,Virus Titer,[7]; assay replicate 2,<0.7 Log10CCID50 of virus per 0.1 ml
same,Toxicity,[8],None
same,LRV,[9],3.4
same,Virus Titer,[9],5.3 log10 CCID50 of virus per 0.1 mL
same,Toxicity,[10],None
same,LRV,[11],>2.3
same,Virus Titer,[12],4.5 log10 CCID50 of virus per 0.1 mL
